Test results reported in EPA's aquatic toxicity sets.

These molecules were tested on Tetrahymena pyriformis (assay: 48 h IGC50 (-log10 mol/L); higher = more toxic).

Going from `CC(C)(CO)CBr` to `CC(C)(C)CO`, the “48 h IGC50 (-log10 mol/L)” value falls from 2.54 to 2.13.

Going from `Oc1c(Cl)cc(F)cc1Cl` to `Oc1cc(Cl)ccc1Cl`, the “48 h IGC50 (-log10 mol/L)” value rises from 3.8 to 4.13.

Compared with `O=C(c1ccccc1)c1ccccc1`, `Cc1ccc(-c2ccccc2)cc1` is higher in “48 h IGC50 (-log10 mol/L)” value: 3.87 for the first, 4.66 for the second.

First: NC(=O)CI
Second: CCOC(=O)CI
The “48 h IGC50 (-log10 mol/L)” value of the first is lower: 4.85 for the first, 5.92 for the second.

Compared with `C=CCCC(C)=O`, `C=C(C)CCC(C)=O` is higher in “48 h IGC50 (-log10 mol/L)” value: 1.86 for the first, 2.12 for the second.

First: CCCCCC(=O)OC
Second: CCCCC(=O)OC
The “48 h IGC50 (-log10 mol/L)” value of the first is higher: 2.44 for the first, 2.15 for the second.

Going from `C#CCSc1ccccc1` to `N#CCCCc1ccccc1`, the “48 h IGC50 (-log10 mol/L)” value falls from 3.54 to 3.15.

First: CC=CC(C)O (stereo not drawn)
Second: C/C=C/C(=O)OC(C)CC (stereo not drawn)
The “48 h IGC50 (-log10 mol/L)” value of the first is lower: 1.6 for the first, 2.58 for the second.

Compared with `OCCCCCCCCCCO`, `CCCCCCCCCCC(C)O` (stereo not drawn) is higher in “48 h IGC50 (-log10 mol/L)” value: 3.22 for the first, 4.66 for the second.

Going from `NC(=O)c1ccccc1[N+](=O)[O-]` to `N#Cc1ccccc1C(N)=O`, the “48 h IGC50 (-log10 mol/L)” value rises from 2.28 to 2.68.

Compared with `N#C/C=C/c1ccco1`, `N#Cc1cccc(C=O)c1` is higher in “48 h IGC50 (-log10 mol/L)” value: 2.69 for the first, 2.98 for the second.

First: Cc1cccc(C)c1[N+](=O)[O-]
Second: Cc1cc(O)ccc1[N+](=O)[O-]
The “48 h IGC50 (-log10 mol/L)” value of the first is lower: 3.3 for the first, 4.73 for the second.

Compared with `CCCCCOC(=O)c1ccccc1`, `CCCCCCOC(C)=O` is lower in “48 h IGC50 (-log10 mol/L)” value: 4.37 for the first, 2.99 for the second.

Compared with `CCCCCc1ccc(O)cc1`, `ClCCCc1ccccc1` is lower in “48 h IGC50 (-log10 mol/L)” value: 4.58 for the first, 3.5 for the second.

Going from `CCOC(=O)c1ccc(C#N)cc1` to `CCOC(=O)c1ccc(Cl)cc1`, the “48 h IGC50 (-log10 mol/L)” value rises from 3.37 to 3.75.

Going from `O=Cc1ccsc1` to `Brc1ccsc1`, the “48 h IGC50 (-log10 mol/L)” value falls from 3.4 to 2.96.

Compared with `OCCCCCCCl`, `NCCCCO` is lower in “48 h IGC50 (-log10 mol/L)” value: 2.73 for the first, 2.02 for the second.

`CC#CC(O)CC` (stereo not drawn) and `CCC#CC(O)CC` (stereo not drawn) are within 0.2 log units of each other in “48 h IGC50 (-log10 mol/L)” value: 2.81 for the first, 2.97 for the second.

First: O=[N+]([O-])c1cccnc1SCc1ccccc1
Second: O=[N+]([O-])c1cccc2cccnc12
The “48 h IGC50 (-log10 mol/L)” value of the first is higher: 4.72 for the first, 3.08 for the second.

Compared with `CC(C)c1cccc(O)c1`, `OCCOc1cccc(O)c1` is lower in “48 h IGC50 (-log10 mol/L)” value: 3.61 for the first, 2.13 for the second.

Going from `CCOC(=O)C=C(OCC)OCC` to `CCOC(=O)CCC(C)=O`, the “48 h IGC50 (-log10 mol/L)” value falls from 2.35 to 1.6.

Going from `Nc1c(Br)cc([N+](=O)[O-])cc1[N+](=O)[O-]` to `Nc1c(Br)cc(Br)cc1[N+](=O)[O-]`, the “48 h IGC50 (-log10 mol/L)” value rises from 4.24 to 4.62.

First: CC(=O)c1cc[nH]c1
Second: CC(=O)c1ccc(O)cc1O
The “48 h IGC50 (-log10 mol/L)” value of the first is lower: 2.15 for the first, 3.25 for the second.

First: CCCCOC(=O)CCCCCCC(=O)OCCCC
Second: CCCCCCCCC(=O)OC
The “48 h IGC50 (-log10 mol/L)” value of the first is higher: 4.66 for the first, 4.04 for the second.

Compared with `CCN=C=S`, `CCCCNC` is lower in “48 h IGC50 (-log10 mol/L)” value: 4.63 for the first, 2.32 for the second.

First: Oc1ccc(Cl)c(O)c1
Second: Cc1ccc(O)c(O)c1
The “48 h IGC50 (-log10 mol/L)” value of the first is lower: 3.13 for the first, 3.37 for the second.

`N#Cc1cccc(Cl)c1` and `N#Cc1ccc(C=O)cc1` are within 0.2 log units of each other in “48 h IGC50 (-log10 mol/L)” value: 2.94 for the first, 3.04 for the second.

First: CCC=C(C)C=O
Second: CC(C)COC=O
The “48 h IGC50 (-log10 mol/L)” value of the first is higher: 2.98 for the first, 1.69 for the second.

First: CC(=O)C(C)=O
Second: COC(=O)CC(=O)OC
The “48 h IGC50 (-log10 mol/L)” value of the first is higher: 2.77 for the first, 1.71 for the second.

First: CCCCCCC=CCO
Second: CCCCCCC(C)O (stereo not drawn)
The “48 h IGC50 (-log10 mol/L)” value of the first is higher: 3.77 for the first, 3 for the second.

First: C=CCOC(=O)C=C
Second: CCC(=O)OCC(C)C
The “48 h IGC50 (-log10 mol/L)” value of the first is higher: 3.68 for the first, 2.31 for the second.

Compared with `CC(C)(C)N`, `CC(C)(C)C(=O)CCl` is higher in “48 h IGC50 (-log10 mol/L)” value: 2.1 for the first, 4.27 for the second.

Going from `Oc1c(Br)cc(Br)c(O)c1Br` to `COC(=O)c1ccc(OC)cc1O`, the “48 h IGC50 (-log10 mol/L)” value falls from 4.06 to 3.62.

Going from `O=C/C(Cl)=C/c1ccccc1` to `COc1ccccc1C=O`, the “48 h IGC50 (-log10 mol/L)” value falls from 4.73 to 3.15.

`CCOC(=O)c1ccc(C(C)(C)C)cc1` and `Cc1cc(N)ccc1O` are within 0.2 log units of each other in “48 h IGC50 (-log10 mol/L)” value: 4.42 for the first, 4.31 for the second.

First: COc1cc(C=O)ccc1O
Second: Oc1ccc(F)cc1F
The “48 h IGC50 (-log10 mol/L)” value of the first is lower: 2.97 for the first, 3.6 for the second.

`c1cnc2ccc3ncccc3c2c1` and `O=Cc1ccc(O)c2ccccc12` are within 0.2 log units of each other in “48 h IGC50 (-log10 mol/L)” value: 4.14 for the first, 4.05 for the second.

`CCCCC(=O)Cl` and `CCC(C)CC(=O)O` (stereo not drawn) are within 0.2 log units of each other in “48 h IGC50 (-log10 mol/L)” value: 2.65 for the first, 2.77 for the second.

Going from `CCCOS(=O)OCCC` to `CS(C)(=O)=O`, the “48 h IGC50 (-log10 mol/L)” value falls from 3.09 to 0.8.

First: Nc1cccc([N+](=O)[O-])c1
Second: N#Cc1ccccc1C#N
The “48 h IGC50 (-log10 mol/L)” value of the first is higher: 3.03 for the first, 2.66 for the second.

First: CC(C)CCN
Second: CC1CCC(=O)O1 (stereo not drawn)
The “48 h IGC50 (-log10 mol/L)” value of the first is higher: 2.42 for the first, 1.43 for the second.

In the case of `c1cn[nH]c1`, the “48 h IGC50 (-log10 mol/L)” value is reported as 1.29.
